Reference: paper PMC12077149, “Evolution of PqsE as a Pseudomonas aeruginosa-specific regulator of LuxR-type receptors: insights from Pseudomonas and Burkholderia” (mBio, 2025)

Key:
[1] = target: T1, CepR (Burkholderia cepacia, UniProt Q9AM51); test: protein solubilization in E. coli, SDS-PAGE; format: cell-based; conditions: AHL added at induction
T1 construct: gene CO711_26440; untagged full-length, in E. coli (arabinose-inducible with pcepI-luxCDABE reporter; pET-DUET for solubility)

[2] = system: T2, HhqE^Bc; test: thiol release with Ellman's reagent, A412; format: biochemical, Burkholderia cepacia; conditions: 0.1 M Tris-HCl pH 8.0, 2 mM DTNB; 2 µM enzyme; substrate up to 1 mM
T2 construct: 6xHis-tagged, E. coli BL21(DE3), Ni-NTA and SEC; monomer (~32 kDa by SEC)
Excerpt: thiol release with Ellman's reagent, A412 on HhqE^Bc

[3] = target: T1, CepR; test: E. coli pcepI-lux reporter; protein solubilization; format: cell-based; conditions: 10 µM AHL in reporter; agonist
[4] = system: T2, HhqE^Bc; test: fluorescence hydrolysis assay (ex […] / em […] nm); format: biochemical, Burkholderia cepacia; conditions: 50 mM Tricine, 0.01% Triton X-100; 2 µM enzyme; substrate up to 8 µM

T1 sequence (Q9AM51 entry or part of it): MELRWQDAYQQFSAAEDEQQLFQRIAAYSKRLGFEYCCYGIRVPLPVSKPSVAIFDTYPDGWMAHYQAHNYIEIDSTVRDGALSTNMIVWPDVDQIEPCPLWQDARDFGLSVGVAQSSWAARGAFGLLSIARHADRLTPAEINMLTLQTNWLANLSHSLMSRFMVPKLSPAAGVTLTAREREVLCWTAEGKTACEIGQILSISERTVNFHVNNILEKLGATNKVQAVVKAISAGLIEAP

| SMILES | protein solubilization in E. coli, SDS-PAGE [1] | E. coli pcepI-lux reporter; protein solubilization [3] | further results |
| --- | --- | --- | --- |
| CCCCCCCCCC(=O)CC(=O)N[C@H]1CCOC1=O [3OC12HSL] | C6HSL, C8HSL, C10HSL, and 3OC12HSL—were sufficient for the solubilization of CepR | – | – |
| CC(=O)CC(=O)SCCNC(=O)CCNC(=O)[C@H](O)C(C)(C)COP(=O)(O)OP(=O)(O)OC[C@H]1O[C@@H](n2cnc3c(N)ncnc32)[C@H](O)[C@@H]1OP(=O)(O)O [Acetoacetyl-CoA] | – | – | Km [2]: 7.5 ± 0.4 mM |
| CCCCCC(=O)N[C@H]1CCOC1=O [C6HSL] | C6HSL, C8HSL, C10HSL, and 3OC12HSL—were sufficient for the solubilization of CepR | – | – |
| CCCCCCCC(=O)N[C@H]1CCOC1=O [C8HSL] | – | CepR responded to its cognate ligand C8HSL and, to a lesser extent, C10HSL | – |
| CCCCCCCCCC(=O)N[C@H]1CCOC1=O [C10HSL] | – | CepR responded to its cognate ligand C8HSL and, to a lesser extent, C10HSL | – |
| CCCC(=O)Oc1ccc2c(C)cc(=O)oc2c1 [MU-butyrate] | – | – | Km [4]: 0.00016 mM |
